PMC11125159 (Pharmaceutics, 2024)
Marks after values point to notes of the source that are not given here.

Experiment: Pharmacokinetic assay in rats, plasma LIRA by UPLC-MS/MS
Type: in vivo
Settings: male Wistar rats, subcutaneous, single dose 200 µg/kg of LIRA, mean ± SD, n = 6
Description: Ultra-performance liquid chromatography (Acquity UPLC© Waters, Milford, MA, USA), coupled with a triple quadrupole mass spectrometer (XEVO-TQD, Waters®) equipped with a Z sprayTM electrospray ionisation source (Waters®, Milford, MA, USA), was employed to detect, and quantify LIRA levels in rat plasma after treatment. An ACQUITY UPLC BEH C18 reversed-phase chromatographic column (50 mm × 2.1 mm; 1.7 µm) was used, with a mobile phase composed of acetonitrile and ultrapure water, both acidified with 0.1% formic acid, eluted in gradient mode, with varying proportions (20/80, 45/55, 60/40, 80/20, 90/10, 80/20, 30/70, 20/80) at specific time intervals (0, 1.5, 2.0, 2.5, 3.0, 3.5, 4.5, 6.0 min), with a flow rate of 0.3 mL/min, injection volume of 2 µL, with a total analysis time of 7.5 min. The samples were maintained at a temperature of 10 °C in the sampler, while the column oven was maintained at 40 °C. Detection by mass spectrometry was carried out in positive electrospray ionisation (ESI+) mode, in multiple reaction monitoring (MRM) mode, with a source temperature of 150 °C, capillary voltage equal to 3.5 kV, desolvation temperature of 600 °C, desolvation flow of 1000 L/h and gas flow in the cone of 50 L/h. […] The transitions set at m/z 938.7 → 1064.1 for LIRA and m/z 1184.7 → 454.4 for insulin detemir. […]

- Cl: 0.183 ± 0.015 ^b L/h
Structure (SMILES): CCCCCCCCCCCCCCCC(=O)N[C@@H](CCC(=O)NCCCC[C@H](NC(=O)[C@H](C)NC(=O)[C@H](C)NC(=O)[C@H](CCC(N)=O)NC(=O)CNC(=O)[C@H](CCC(=O)O)NC(=O)[C@H](CC(C)C)NC(=O)[C@H](Cc1ccc(O)cc1)NC(=O)[C@H](CO)NC(=O)[C@H](CO)NC(=O)[C@@H](NC(=O)[C@H](CC(=O)O)NC(=O)[C@H](CO)NC(=O)[C@@H](NC(=O)[C@H](Cc1ccccc1)NC(=O)[C@@H](NC(=O)CNC(=O)[C@H](CCC(=O)O)NC(=O)[C@H](C)NC(=O)[C@@H](N)Cc1cnc[nH]1)[C@@H](C)O)[C@@H](C)O)C(C)C)C(=O)N[C@@H](CCC(=O)O)C(=O)N[C@@H](Cc1ccccc1)C(=O)N[C@H](C(=O)N[C@@H](C)C(=O)N[C@@H](Cc1c[nH]c2ccccc12)C(=O)N[C@@H](CC(C)C)C(=O)N[C@H](C(=O)N[C@@H](CCCNC(=N)N)C(=O)NCC(=O)N[C@@H](CCCNC(=N)N)C(=O)NCC(=O)O)C(C)C)[C@@H](C)CC)C(=O)O [Free LIRA, Liraglutide]
